Measured values from US9695155B2, “Herbicidal substituted pyrimidinyloxy benzene compounds” (E. I. DU PONT DE NEMOURS AND COMPANY, priority 2013, dated 2017).

Legend:
[1] = test system: large (Lg) crabgrass; assay: Test A preemergence; assay type: in vivo, Digitaria sanguinalis; conditions: for Crabgrass, Large plant response rating (0 to 100 scale): 125 g ai/ha; for Crabgrass, Large plant response rating: 500 g ai/ha, 0 to 100 scale where 0 is no effect and 100 is complete control
Method in brief: (§1)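 Greenhouse pot test, loam/sand soil. Formulation: non-phytotoxic solvent mix plus surfactant. Pre: directed spray onto soil after sowing. Post: plants at 1–2 leaf, 2–10 cm. Rated visually vs untreated controls at ~10 d, 0 (no effect) to 100 (complete control).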

[2] = test system: giant foxtail; assay: Test A preemergence; assay type: in vivo, Setaria faberii; conditions: for Foxtail, Giant plant response rating (0 to 100 scale): 125 g ai/ha; for Foxtail, Giant plant response rating: 500 g ai/ha, 0 to 100 scale where 0 is no effect and 100 is complete control
Method in brief: as §1

[3] = test system: pigweed; assay: Test A preemergence; assay type: in vivo, Amaranthus retroflexus; conditions: for Pigweed plant response rating (0 to 100 scale): 125 g ai/ha; for Pigweed plant response rating: 500 g ai/ha, 0 to 100 scale where 0 is no effect and 100 is complete control
Method in brief: as §1

[4] = test system: velvetleaf; assay: Test A preemergence; assay type: in vivo, Abutilon theophrasti; conditions: for Velvetleaf plant response rating (0 to 100 scale): 125 g ai/ha; for Velvetleaf plant response rating: 500 g ai/ha, 0 to 100 scale where 0 is no effect and 100 is complete control
Method in brief: as §1

[5] = test system: large (Lg) crabgrass; assay: Test A postemergence; assay type: in vivo, Digitaria sanguinalis; conditions: 0 to 100 scale where 0 is no effect and 100 is complete control; for Crabgrass, Large plant response rating: 125 g ai/ha; for Plant response rating, Crabgrass, Large: 500 g ai/ha
Method in brief: as §1

[6] = test system: giant foxtail; assay: Test A postemergence; assay type: in vivo, Setaria faberii; conditions: 0 to 100 scale where 0 is no effect and 100 is complete control; for Foxtail, Giant plant response rating: 125 g ai/ha; for Plant response rating, Foxtail, Giant: 500 g ai/ha
Method in brief: as §1

[7] = test system: pigweed; assay: Test A postemergence; assay type: in vivo, Amaranthus retroflexus; conditions: 0 to 100 scale where 0 is no effect and 100 is complete control; for Pigweed plant response rating: 125 g ai/ha; for Plant response rating, Pigweed: 500 g ai/ha
Method in brief: as §1

[8] = test system: velvetleaf; assay: Test A postemergence; assay type: in vivo, Abutilon theophrasti; conditions: 0 to 100 scale where 0 is no effect and 100 is complete control; for Velvetleaf plant response rating: 125 g ai/ha; for Plant response rating, Velvetleaf: 500 g ai/ha
Method in brief: as §1

[9] = test system: wheat, winter; assay: Test C postemergence; assay type: in vivo, Triticum aestivum; conditions: for Plant response rating (0 to 100), Wheat: 16 g ai/ha, 0 is no effect, 100 is complete control; for Wheat plant response rating: 31 g ai/ha, 13 to 15 days; for Wheat plant response rating / Plant response rating, Wheat: scale 0 to 100 (0 no effect, 100 complete control)
Method in brief: (§2)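 Visual injury score versus untreated controls, 0 = no effect, 100 = complete control, taken 13 to 15 days after treatment in the greenhouse. Pre-emergence pots held loam/sand; post-emergence plants grew in sphagnum peat/vermiculite mix and were sprayed at the 1- to 4-leaf stage.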

[10] = test system: giant foxtail; assay: Test C postemergence; assay type: in vivo, Setaria faberii; conditions: for Plant response rating (0 to 100), Foxtail, Giant: 16 g ai/ha, 0 is no effect, 100 is complete control; for Foxtail, Giant plant response rating: 31 g ai/ha, 13 to 15 days; for Foxtail, Giant plant response rating / Plant response rating, Foxtail, Giant: scale 0 to 100 (0 no effect, 100 complete control)
Method in brief: as §2

[11] = test system: ragweed; assay: Test C postemergence; assay type: in vivo, Ambrosia elatior; conditions: for Plant response rating (0 to 100), Ragweed: 16 g ai/ha, 0 is no effect, 100 is complete control; for Ragweed plant response rating: 31 g ai/ha, 13 to 15 days; for Ragweed plant response rating / Plant response rating, Ragweed: scale 0 to 100 (0 no effect, 100 complete control)
Method in brief: as §2

[12] = test system: soybean; assay: Test C postemergence; assay type: in vivo, Glycine max; conditions: for Plant response rating (0 to 100), Soybean: 16 g ai/ha, 0 is no effect, 100 is complete control; for Soybean plant response rating: 31 g ai/ha, 13 to 15 days; for Soybean plant response rating / Plant response rating, Soybean: scale 0 to 100 (0 no effect, 100 complete control)
Method in brief: as §2

[13] = test system: wild oat; assay: Test C postemergence; assay type: in vivo, Avena fatua; conditions: for Plant response rating (0 to 100), Oat, Wild: 16 g ai/ha, 0 is no effect, 100 is complete control; for Oat, Wild plant response rating: 31 g ai/ha, 13 to 15 days; for Oat, Wild plant response rating / Plant response rating, Oat, Wild: scale 0 to 100 (0 no effect, 100 complete control)
Method in brief: as §2

[14] = test system: velvetleaf; assay: Test C postemergence; assay type: in vivo, Abutilon theophrasti; conditions: for Plant response rating (0 to 100), Velvetleaf: 16 g ai/ha, 0 is no effect, 100 is complete control; for Velvetleaf plant response rating: 31 g ai/ha, 13 to 15 days; for Velvetleaf plant response rating / Plant response rating, Velvetleaf: scale 0 to 100 (0 no effect, 100 complete control)
Method in brief: as §2

[15] = test system: chickweed; assay: Test C postemergence; assay type: in vivo, Stellaria media; conditions: for Plant response rating (0 to 100), Chickweed: 16 g ai/ha, 0 is no effect, 100 is complete control; for Chickweed plant response rating: 31 g ai/ha, 13 to 15 days; for Chickweed plant response rating / Plant response rating, Chickweed: scale 0 to 100 (0 no effect, 100 complete control)
Method in brief: as §2

[16] = 125 g ai/ha, postemergence, visual rating

SMILES: Cc1cnc(Oc2cccc(C#N)c2-n2cc(C(F)(F)F)cn2)nc1 [Compound 180]
- Crabgrass, Large plant response rating (0 to 100 scale) [1]: 100
- Crabgrass, Large plant response rating [1]: 100
- Foxtail, Giant plant response rating (0 to 100 scale) [2]: 100
- Foxtail, Giant plant response rating [2]: 100
- Pigweed plant response rating (0 to 100 scale) [3]: 100
- Pigweed plant response rating [3]: 100
- Velvetleaf plant response rating (0 to 100 scale) [4]: 100
- Velvetleaf plant response rating [4]: 100
- Crabgrass, Large plant response rating [5]: 90
- Plant response rating, Crabgrass, Large [5]: 90
- Foxtail, Giant plant response rating [6]: 90
- Plant response rating, Foxtail, Giant [6]: 90
- Pigweed plant response rating [7]: 100
- Plant response rating, Pigweed [7]: 100
- Velvetleaf plant response rating [8]: 100
- Plant response rating, Velvetleaf [8]: 100
- Plant response rating (0 to 100), Wheat ([9]; postemergence): 0
- Wheat plant response rating ([9]; postemergence, visual rating): 0
- Plant response rating, Wheat [9, 16]: 5
- Plant response rating, Wheat ([9]; Postemergence, 62 g ai/ha): 0
- Plant response rating (0 to 100), Foxtail, Giant ([10]; postemergence): 5
- Foxtail, Giant plant response rating ([10]; postemergence, visual rating): 5
- Plant response rating, Foxtail, Giant [10, 16]: 80
- Plant response rating, Foxtail, Giant ([10]; Postemergence, 62 g ai/ha): 10
- Plant response rating (0 to 100), Ragweed ([11]; postemergence): 35
- Ragweed plant response rating ([11]; postemergence, visual rating): 65
- Plant response rating, Ragweed [11, 16]: 70
- Plant response rating, Ragweed ([11]; Postemergence, 62 g ai/ha): 80
- Plant response rating (0 to 100), Soybean ([12]; postemergence): 85
- Soybean plant response rating ([12]; postemergence, visual rating): 85
- Plant response rating, Soybean [12, 16]: 95
- Plant response rating, Soybean ([12]; Postemergence, 62 g ai/ha): 98
- Plant response rating (0 to 100), Oat, Wild ([13]; postemergence): 5
- Oat, Wild plant response rating ([13]; postemergence, visual rating): 10
- Plant response rating, Oat, Wild [13, 16]: 30
- Plant response rating, Oat, Wild ([13]; Postemergence, 62 g ai/ha): 20
- Plant response rating (0 to 100), Velvetleaf ([14]; postemergence): 30
- Velvetleaf plant response rating ([14]; postemergence, visual rating): 40
- Plant response rating, Velvetleaf [14, 16]: 85
- Plant response rating, Velvetleaf ([14]; Postemergence, 62 g ai/ha): 65
- Plant response rating (0 to 100), Chickweed ([15]; postemergence): 50
- Chickweed plant response rating ([15]; postemergence, visual rating): 60
- Plant response rating, Chickweed [15, 16]: 80
- Plant response rating, Chickweed ([15]; Postemergence, 62 g ai/ha): 70

SMILES: Clc1cnc(Oc2cccc(Cl)c2-n2cc(I)cn2)nc1 [Compound 181]
- Crabgrass, Large plant response rating (0 to 100 scale) [1]: 100
- Crabgrass, Large plant response rating [1]: 100
- Foxtail, Giant plant response rating (0 to 100 scale) [2]: 90
- Foxtail, Giant plant response rating [2]: 100
- Pigweed plant response rating (0 to 100 scale) [3]: 100
- Pigweed plant response rating [3]: 100
- Velvetleaf plant response rating (0 to 100 scale) [4]: 20
- Velvetleaf plant response rating [4]: 40
- Crabgrass, Large plant response rating [5]: 70
- Plant response rating, Crabgrass, Large [5]: 90
- Foxtail, Giant plant response rating [6]: 70
- Plant response rating, Foxtail, Giant [6]: 90
- Pigweed plant response rating [7]: 100
- Plant response rating, Pigweed [7]: 100
- Velvetleaf plant response rating [8]: 100
- Plant response rating, Velvetleaf [8]: 100
- Plant response rating (0 to 100), Wheat ([9]; postemergence): 0
- Wheat plant response rating ([9]; postemergence, visual rating): 0
- Plant response rating, Wheat [9, 16]: 5
- Plant response rating, Wheat ([9]; Postemergence, 62 g ai/ha): 0
- Plant response rating (0 to 100), Foxtail, Giant ([10]; postemergence): 10
- Foxtail, Giant plant response rating ([10]; postemergence, visual rating): 10
- Plant response rating, Foxtail, Giant [10, 16]: 10
- Plant response rating, Foxtail, Giant ([10]; Postemergence, 62 g ai/ha): 25
- Plant response rating (0 to 100), Ragweed ([11]; postemergence): 5
- Ragweed plant response rating ([11]; postemergence, visual rating): 35
- Plant response rating, Ragweed [11, 16]: 45
- Plant response rating, Ragweed ([11]; Postemergence, 62 g ai/ha): 30
- Plant response rating (0 to 100), Soybean ([12]; postemergence): 35
- Soybean plant response rating ([12]; postemergence, visual rating): 50
- Plant response rating, Soybean [12, 16]: 95
- Plant response rating, Soybean ([12]; Postemergence, 62 g ai/ha): 50
- Plant response rating (0 to 100), Oat, Wild ([13]; postemergence): 0
- Oat, Wild plant response rating ([13]; postemergence, visual rating): 5
- Plant response rating, Oat, Wild [13, 16]: 5
- Plant response rating, Oat, Wild ([13]; Postemergence, 62 g ai/ha): 5
- Plant response rating (0 to 100), Velvetleaf ([14]; postemergence): 25
- Velvetleaf plant response rating ([14]; postemergence, visual rating): 20
- Plant response rating, Velvetleaf [14, 16]: 70
- Plant response rating, Velvetleaf ([14]; Postemergence, 62 g ai/ha): 40
- Plant response rating (0 to 100), Chickweed ([15]; postemergence): 55
- Chickweed plant response rating ([15]; postemergence, visual rating): 75
- Plant response rating, Chickweed [15, 16]: 85
- Plant response rating, Chickweed ([15]; Postemergence, 62 g ai/ha): 80
